Read-outs that look alike come from different tables or passages of the source.
Columns and labels:
[1] = system: Escherichia coli Nissle 1917 (EcN); experiment: In vitro tracer uptake into E. coli Nissle culture (gamma counter); type: cell-based; details: 0.925 MBq tracer, culture grown at 37° C. for 4 hours
Procedure: An overnight culture of EcN was diluted 1:50 into 5 ml fresh LB-broth, supplemented with 0.925 MBq (25 μCi) of [^18F]-FDG or [^18F]-FEAU. The cultures were grown at 37° C. for 4 hours. The bacteria were harvested by centrifugation, washed twice with PBS and the radioactivity in the pelleted bacteria and medium was measured in a gamma counter (Packard, United Technologies, Downers Grove, Ill.).

E. coli Nissle [2] = details: for tumor-to-organ ratio, heart / tumor-to-organ ratio, liver / tumor-to-organ ratio, muscle: PET
Procedure: The in vivo uptake of [^18F]-FDG and [^18F]-FEAU by administered EcN bacteria was studied using a mouse tumor model and imaged by positron emission tomography (PET) scanning.
At two weeks post tumor cell implantation (tumor diameter >5 mm), the EcN bacteria (4×10^6 CFU in 100 μl PBS) were administered systemically by lateral tail vein injection into the tumor bearing mice. Control mice were injected with 100 μl PBS via tail vein.
Prior to tracer administration, [^18F]-FDG or [^18F]-FEAU, the animals were starved 12 h and kept under anesthesia between tracer injection and imaging. In the [^18F]-FDG experimental group of mice (n=6 for each time point), each animal was injected intravenously by tail vein with 9.25 MBq (250 μCi) of [^18F]-FDG at either 16 or 72 hours after administration of EcN. Control mice received 9.25 MBq (250 μCi) of [^18F]-FDG following administration of PBS. [^18F]-FDG FDG PET scanning was performed 1 h after tracer administration using a 10 minute list mode acquisition.
In the [^18F]-FEAU experimental group of mice (n=8 for each time point), each animal was injected intravenously by tail vein with 9.25 MBq (250 μCi) of [^18F]-FEAU at either 16 or 72 hours after administration of EcN. Control mice received 9.25 MBq (250 μCi) of [^18F]-FEAU following administration of 100 μl PBS. [^18F]-FDG PET scanning was performed 2 h after tracer administration using a 10 minute list mode acquisition.
Imaging was performed using a Focus 120 microPET™ dedicated small-animal PET scanner (Concorde Microsystems Inc, Knoxyille, Tenn.). Mice were maintained under 2% isofluorane anesthesia with an oxygen flow rate of 2 l/min during the entire scanning period. Three-dimensional (3D) list-mode data were acquired using an energy window of 350-700 keV for ^18F and 410-580 keV for ^124I, respectively and a coincidence timing window of 6 ns. […] Transverse images were reconstructed by filtered back-projection using a ramp filter with a cut-off frequency equal to the Nyquist frequency in a 128×128×94matrix comprised of 0.866×0.866×0.866-mm voxels. The image data were corrected for (a) non-uniformity of scanner response using a uniform cylinder source-based normalization, (b) dead time count losses using a singles count rate-based global correction, (c) physical decay to the time of injection, and (d) the ^124I branching ratio. There was no correction applied for attenuation, scatter or partial-volume averaging. The count rates in the reconstructed images were converted to activity concentration (% of injected dose per gram of tissue, % ID/g) using a system calibration factor (μCi/ml/cps/voxel) derived from imaging of a rat-size phantom filled with a uniform aqueous solution of ^18F.
PET image analysis was performed using ASIPro™ software (Concorde Microsystems Inc., Knoxyille, Tenn.). For each PET scan, regions of interest (ROIs) were manually drawn over tumor, liver, skeletal muscle and heart.

E. coli Nissle [3] = details: in the absence of bacteria
Description: Using the data obtained in Example 2 for in vivo [^18F]-FEAU uptake, tumor radioactivity (% ID/g), corrected for background radioactivity, was plotted against the number of bacterial colony forming units per gram for each of the tumors imaged.

E. coli Nissle [4] = experiment: [18F]-FEAU uptake by tissue sampling, tumor-to-organ radioactivity ratios; type: in vivo, mice; details: after EcN administration, p<0.02
Procedure: In vivo uptake of [^18F]-FEAU was measured in a separate experiment by measurement of tumor-to-organ (liver, spleen, heart and lung) [^18F]-FEAU radioactivity ratios via tissue sampling. […] Euthanized mice were rinsed with 100% ethanol prior to tissue removal. Organs, including liver, lung, spleen and heart, were sampled and weighed before radioactivity was measured. Tumor tissue was weighed and homogenized in 1 ml PBS. Serial dilutions of the homogenized sample were plated on L-arabinose containing LB-agar plates. […] The remaining tumor suspension and organ samples were assayed for radioactivity in a gamma counter (Packard, United Technologies, Downers Grove, Ill.). [^18F]-FEAU radioactivity (% ID/g) in the samples was determined and tumor-to-organ ratios calculated. To assess the correlation between radioactivity and scintillation counter measurements, the Pearson correlation coefficient was computed.

E. coli Nissle [5] = experiment: In vivo [124I]-FIAU PET distribution over time in 4T1 xenograft mice
Procedure: Mice bearing 4T1 xenografts were generated as described in Example 2. Prior to intravenous administration of ^[124I]-FIAU, three mice were injected with EcN-bacteria and 3 mice with PBS (control). 37 MBq (1000 μCi) of [^124I]-FIAU was injected into each animal intravenously 72 h after bacterial injection. Potassium iodide was used to block the uptake of radioactive iodine by the thyroid. Imaging of [^124I]-FIAU uptake by PET was obtained 4, 8, 12, 24, 48 and 72 h after tracer administration with 10 minute list acquisition at the 4 h and 8 h imaging time points, 15 minute at the 12 h time point, 30 minute at 24 h time point and 60 minute at the 48 h and 72 h time points. After tracer administration and between imaging time points, the animals were allowed to awake and maintain normal husbandry.

[6] = 4T1 tumors, without/prior to EcN injection
[7] = tracer 16 h after EcN injection
[8] = tracer 72 h after EcN injection

| SMILES | enrichment of radioactivity within EcN-bacteria compared to the remaining LB-broth [1] | enhancement of the tracer signal (tumor-to-organ ratios post-EcN vs pre-EcN) (E. coli Nissle [2]; 16 h after EcN injection) | enhancement of the tracer signal (tumor-to-organ ratios post-EcN vs pre-EcN) (E. coli Nissle [2]; 72 h after EcN injection) | tumor-to-organ ratio, heart (E. coli Nissle [2]; [6]) | tumor-to-organ ratio, liver (E. coli Nissle [2]; [6]) | tumor-to-organ ratio, muscle (E. coli Nissle [2]; [6]) | tumor-to-organ ratio, heart (E. coli Nissle [2]; [7]) | tumor-to-organ ratio, liver (E. coli Nissle [2]; [7]) | tumor-to-organ ratio, muscle (E. coli Nissle [2]; [7]) | tumor-to-organ ratio, heart (E. coli Nissle [2]; [8]) | tumor-to-organ ratio, liver (E. coli Nissle [2]; [8]) | tumor-to-organ ratio, muscle (E. coli Nissle [2]; [8]) | uptake in tumors (E. coli Nissle [2]; in the absence of EcN injection) | accumulation in 4T1 xenografts (E. coli Nissle [3]) | tumor to organ ratio (liver, spleen, heart, lung) by tissue sampling (E. coli Nissle [4]) | background radioactivity in PET images (E. coli Nissle [5]; 4 and 8 h acquisition time points) | tumor/background ratios (E. coli Nissle [5]; 48 and 72 h after tracer, EcN-treated animals) | enrichment in the bacteria-treated tumors versus control tumors (E. coli Nissle [5]; tracer 72 h after bacterial injection) |
| --- | --- | --- | --- | --- | --- | --- | --- | --- | --- | --- | --- | --- | --- | --- | --- | --- | --- | --- |
| OC[C@H]1OC(O)[C@H]([18F])[C@@H](O)[C@@H]1O (stereo partly drawn) [[^18F]-FDG, 2′-[^18F]fluoro-2′deoxy-D-glucose] | 120 fold | ~1.7 fold | ~1.4 fold | 0.23±0.12 | 1.6±0.4 | 3.3±0.7 | 0.31±0.8 | 2.6±0.5 | 5.4±1.1 | 0.31±0.17 | 2.2±0.8 | 4.3±1.2 |  |  |  |  |  |  |
| CCc1cn([C@@H]2O[C@H](CO)[C@@H](O)[C@@H]2[18F])c(=O)[nH]c1=O [[^18F]-FEAU, 2′-[^18F]fluoro-2′deoxy-1-β-D-arabinofuranosyl-5-ethyl-uracil] | 6.5 fold | ~1.6 fold | ~2.1 fold | 1.4±0.3 | 1.4±0.3 | 1.7±0.4 | 2.1±0.6 | 2.0±0.7 | 2.6±0.8 | 2.9±0.8 | 2.4±0.8 | 3.0±1.3 | much lower than that of [^18F]-FDG | near background levels | increased significantly |  |  |  |
| O=c1[nH]c(=O)n([C@@H]2O[C@H](CO)[C@@H](O)[C@@H]2F)cc1I [[^124I]-FIAU, 5-iodo-2′-fluoro-2′deoxy-1-β-D-arabino-furanosyl-uracil] |  |  |  |  |  |  |  |  |  |  |  |  |  | low levels above background |  | very high background radioactivity | greater than 5 | 2.5 fold |
